Data reported in patent publication US20050004134A1, “Thiazole derivative and pharmaceutical use thereof” (priority 2001, published 2005).

SMILES	melting point
COCCNCC(=O)Nc1nc(-c2ccccc2)c(-c2ccc(=O)n(C(C)C)n2)s1.Cl	252 to 253 °C
CC(C)n1nc(-c2sc(NC(=O)CN3CCN(C)CC3)nc2-c2ccccc2)ccc1=O.Cl.Cl	244 to 246 °C
CC(C)n1nc(-c2sc(NC(=O)CN3CCOCC3)nc2-c2ccccc2)ccc1=O.Cl	252 to 253 °C
CC(C)n1nc(-c2sc(NC(=O)CN3CCCC3)nc2-c2ccccc2)ccc1=O.Cl	> 250 °C
CC(C)n1nc(-c2sc(NC(=O)CN(C)C)nc2-c2ccccc2)ccc1=O.Cl	232 to 234 °C
CC(C)n1nc(-c2sc(NC(=O)CNCCCN3CCCC3=O)nc2-c2ccccc2)ccc1=O.Cl	207 to 209 °C
CC(O)CNCC(=O)Nc1nc(-c2ccccc2)c(-c2ccc(=O)n(C(C)C)n2)s1.Cl (centres unmarked)	209 to 211 °C
CC(C)n1nc(-c2sc(NC(=O)CNCC(O)c3ccccc3)nc2-c2ccccc2)ccc1=O.Cl (centres unmarked)	218 to 220 °C
CC(C)n1nc(-c2sc(NC(=O)CNCCCO)nc2-c2ccccc2)ccc1=O.Cl	136 to 142 °C
CC(C)n1nc(-c2sc(NC(=O)CNCCCN3CCOCC3)nc2-c2ccccc2)ccc1=O.Cl.Cl	211 to 213 °C
CC(C)n1nc(-c2sc(NC(=O)CNCCN(C)C)nc2-c2ccccc2)ccc1=O.Cl.Cl	136 to 142 °C
CC(C)n1nc(-c2sc(NC(=O)CCN3CCCC3)nc2-c2ccccc2)ccc1=O.Cl	224 to 225 °C
CCN(CC)CCNCC(=O)Nc1nc(-c2ccccc2)c(-c2ccc(=O)n(C(C)C)n2)s1.Cl.Cl	157 to 159 °C
CC(C)n1nc(-c2sc(NC(=O)CNCCN3CCOCC3)nc2-c2ccccc2)ccc1=O.Cl.Cl	250 to 252 °C
CC(C)NCC(=O)Nc1nc(-c2ccccc2)c(-c2ccc(=O)n(C(C)C)n2)s1.Cl	> 250 °C
CC(C)n1nc(-c2sc(NC(=O)CNC3CC3)nc2-c2ccccc2)ccc1=O.Cl	123 to 125 °C
COCCCNCC(=O)Nc1nc(-c2ccccc2)c(-c2ccc(=O)n(C(C)C)n2)s1.Cl	> 250 °C
CCOCCNCC(=O)Nc1nc(-c2ccccc2)c(-c2ccc(=O)n(C(C)C)n2)s1.Cl	252 to 253 °C
CC(C)n1nc(-c2sc(NC(=O)CNCCN3CCCCC3)nc2-c2ccccc2)ccc1=O.Cl.Cl	> 250 °C
CC(C)n1nc(-c2sc(NCCN3CCOCC3)nc2-c2ccccc2)ccc1=O.Cl.Cl	140 to 143 °C
CC(C)n1nc(-c2sc(NCCCN3CCOCC3)nc2-c2ccccc2)ccc1=O.Cl.Cl	150 to 153 °C

SMILES	melting point
Br.CNc1nc(-c2ccccc2)c(-c2ccc(=O)n(C(C)C)n2)s1	226 to 228 °C
Br.CC(C)n1nc(-c2sc(Nc3ccccc3)nc2-c2ccccc2)ccc1=O	127 to 129 °C
Br.CCCCNc1nc(-c2ccccc2)c(-c2ccc(=O)n(C(C)C)n2)s1	204 to 205 °C
CC(C)n1nc(-c2sc(NC(=O)Oc3ccccc3)nc2-c2ccccc2)ccc1=O	205 to 207 °C
CC(C)n1nc(-c2sc(N)nc2-c2ccccc2)ccc1=O [Example 1, 6-(2-amino-4-phenyl-1,3-thiazol-5-yl)-2-isopropyl-3(2H)-pyridazinone]	> 250 °C
CC(C)n1nc(-c2sc(NC(=O)c3ccccc3)nc2-c2ccccc2)ccc1=O [Example 2, N-[5-(1-isopropyl-6-oxo-1,6-dihydro-3-pyridazinyl)-4-phenyl-1,3-thiazol-2-yl]-benzamide]	126 to 129 °C
CC(C)n1nc(-c2sc(NC(=O)Cc3ccccc3)nc2-c2ccccc2)ccc1=O [Example 4, N-[5-(1-Isopropyl-6-oxo-1,6-dihydro-3-pyridazinyl)-4-phenyl-1,3-thiazol-2-yl]-2-phenylacetamide]	250 to 252 °C
CC(C)n1nc(-c2sc(NC(=O)C(C)(C)C)nc2-c2ccccc2)ccc1=O [Example 5, N-[5-(1-Isopropyl-6-oxo-1,6-dihydro-3-pyridazinyl)-4-phenyl-1,3-thiazol-2-yl]-2,2-dimethylpropanamide]	224 to 226 °C
CC(=O)Nc1nc(-c2ccccc2)c(-c2ccc(=O)n(C(C)C)n2)s1 [Example 6, N-[5-(1-isopropyl-6-oxo-1,6-dihydro-3-pyridazinyl)-4-phenyl-1,3-thiazol-2-yl]-acetamide]	202 to 204 °C
CC(C)n1nc(-c2sc(NC(=O)C3CCCCC3)nc2-c2ccccc2)ccc1=O [Example 7, N-[5-(1-Isopropyl-6-oxo-1,6-dihydro-3-pyridazinyl)-4-phenyl-1,3-thiazol-2-yl]cyclohexanecarboxamide]	234 to 236 °C
CC(C)n1nc(-c2sc(NC(=O)COc3ccccc3)nc2-c2ccccc2)ccc1=O [Example 8, N-[5-(1-Isopropyl-6-oxo-1,6-dihydro-3-pyridazinyl)-4-phenyl-1,3-thiazol-2-yl]-2-phenoxyacetamide]	243 to 244 °C
CC(C)n1nc(-c2sc(NC(=O)NCc3ccccc3)nc2-c2ccccc2)ccc1=O [Example 11, N-benzyl-N′-[5-(1-isopropyl-6-oxo-1,6-dihydro-3-pyridazinyl)-4-phenyl-1,3-thiazol-2-yl]urea]	200 to 201 °C
Cc1ccc(S(=O)(=O)NC(=O)Nc2nc(-c3ccccc3)c(-c3ccc(=O)n(C(C)C)n3)s2)cc1 [Example 12, N-({[5-(1-Isopropyl-6-oxo-1,6-dihydro-3-pyridazinyl)-4-phenyl-1,3-thiazol-2-yl]amino}carbonyl)-4-methylbenzene-sulfonamide]	172 to 174 °C
CCCCCCNc1nc(-c2ccccc2)c(-c2ccc(=O)n(C(C)C)n2)s1 [Example 14, 6-[2-(hexylamino)-4-phenyl-1,3-thiazol-5-yl]-2-isopropyl-3(2H)-pyridazinone]	90 to 92 °C
CC(C)n1nc(-c2sc(Nc3cccnc3)nc2-c2ccccc2)ccc1=O [Example 16, 2-Isopropyl-6-[4-phenyl-2-(3-pyridinylamino)-1,3-thiazol-5-yl]-3(2H)-pyridazinone]	226 to 228 °C
CC(C)n1nc(-c2sc(NCc3ccccn3)nc2-c2ccccc2)ccc1=O [Example 20, 2-Isopropyl-6-{4-phenyl-2-[(2-pyridinylmethyl)amino]-1,3-thiazol-5-yl}-3(2H)-pyridazinone]	182 to 184 °C
CC(=O)N(C)c1nc(-c2ccccc2)c(-c2ccc(=O)n(C(C)C)n2)s1 [Example 22, N-[5-(1-isopropyl-6-oxo-1,6-dihydro-3-pyridazinyl)-4-phenyl-1,3-thiazol-2-yl]-N-methylacetamide]	165 to 167 °C
CC(C)n1nc(-c2sc(N(C)C)nc2-c2ccccc2)ccc1=O [Example 23, 6-[2-(dimethylamino)-4-phenyl-1,3-thiazol-5-yl]-2-isopropyl-3(2H)-pyridazinone]	158 to 160 °C
CC(C)n1nc(-c2sc(NC(=O)c3ccccn3)nc2-c2ccccc2)ccc1=O [Example 26, N-[5-(1-Isopropyl-6-oxo-1,6-dihydro-3-pyridazinyl)-4-phenyl-1,3-thiazol-2-yl]-2-pyridinecarboxamide]	245 to 246 °C
CC(C)n1nc(-c2sc(NC(=O)c3ccc(CN4CCOCC4)cc3)nc2-c2ccccc2)ccc1=O [Example 27, N-[5-(1-Isopropyl-6-oxo-1,6-dihydro-3-pyridazinyl)-4-phenyl-1,3-thiazol-2-yl]-4-(4-morpholinylmethyl)benzamide]	222 to 224 °C
